Source: patent publication US20050282258A1 (priority 2004, published 2005)
Where two headings read alike, the source gives them in different places.

Assays:
yggA transcription = format: cell-based, Escherichia coli; settings: for Beta-galactosidase specific activity (units) in medium with 1 mM arginine / Beta-galactosidase specific activity (units) in medium with 1 mM lysine: glucose-minimal A medium, 37° C.; for transcription of the yggA gene upon supplementation of the culture medium: strains carrying the wild-type argP gene
[1] = test system: wild-type E. coli strain MC4100; experiment: Canavanine tolerance of strains, growth in glucose-minimal A medium; format: cell-based, Escherichia coli; settings: scored after 24 hours at 37° C.
[2] = strain GJ4748/pHYD956 (argR), Nil = 217
[3] = strain MC4100/pHYD926/pHYD956 (argP-S94L), Nil = 1557
[4] = strain MC4100/pHYD956, Nil = 20

`N=C(N)NCCC[C@H](N)C(=O)O` [arginine] was tested, and the “Beta-galactosidase specific activity (units) in medium with 1 mM arginine” value (yggA transcription; [2]) was 424 units, the “Beta-galactosidase specific activity (units) in medium with 1 mM arginine” value (yggA transcription; [3]) was 1514 units and the “Beta-galactosidase specific activity (units) in medium with 1 mM arginine” value (yggA transcription; [4]) was 66 units. The “transcription of the yggA gene upon supplementation of the culture medium” value (shortened to “transcription”) (yggA transcription) was “induced”.

`NC(=O)NCCC[C@H](N)C(=O)O` [citrulline] was tested, and the “transcription” value (yggA transcription) was “induced”.

With `N=C(N)NOCC[C@H](N)C(=O)O` [canavanine] the “transcription” value (yggA transcription) was “induced”, the “growth of MC4100 (canavanine tolerance)” value ([1]; 20 micrograms/ml of canavanine) was “resistant” and the “growth of MC4100 (canavanine tolerance)” value ([1]; 65 micrograms/ml of canavanine in the presence of uracil at 40 micrograms/ml) was “sensitive”.

In the case of `NCCCC[C@H](N)C(=O)O` [lysine], the “Beta-galactosidase specific activity (units) in medium with 1 mM lysine” value (yggA transcription; [2]) is reported as 29 units, the “Beta-galactosidase specific activity (units) in medium with 1 mM lysine” value (yggA transcription; [3]) is reported as 1616 units and the “Beta-galactosidase specific activity (units) in medium with 1 mM lysine” value (yggA transcription; [4]) is reported as 14 units. For the same molecule, the “transcription” value (yggA transcription) was “substantially repressed”.
